In ChEMBL document CHEMBL3763083, “Sulfasalazine in ionic liquid form with improved solubility and exposure” (Medchemcomm, 2015):
Converted amounts (≈) assume the structure as drawn.

Legend:
[1] = tested on: Liver; test: Drug metabolism in rat liver S9 fractions at 1 uM measured at 0 to 60 mins by LC/MS analysis; type: ADME, subcellular, Liver S9 fraction; conditions: s9, 1 µM
[2] = Solubility of compound in stimulated GI fluid at pH 1.1 measured at 15 to 60 mins by LC/MS analysis; type: ADME; conditions: buffer
[3] = Solubility of compound in saline solution after 1 hr by LC/MS analysis; type: physicochemical; conditions: buffer
[4] = Drug recovery in rat bile at 50 mg/kg dosed via oral gavage; type: ADME, organism-based; conditions: read-out: Drug recovery
[5] = Tmax in rat plasma at 50 mg/kg dosed via oral gavage; type: ADME, organism-based
[6] = AUC(infinity) in rat at 50 mg/kg dosed via oral gavage; type: ADME, organism-based; design: dose 50 mg/kg, route oral, time infinity; conditions: in vivo
[7] = Cmax in rat plasma at 50 mg/kg dosed via oral gavage; type: ADME, organism-based; design: dose 50 mg/kg, route oral
[8] = Thermal stability of compound after 30 mins by thermogravimetric analysis; type: physicochemical; conditions: 0.5 h
[9] = Solubility of compound in stimulated intestinal fluid at pH 6.8 measured at 0.5 to 3 hrs by LC/MS analysis; type: ADME; conditions: simulated gi fluid
[10] = Oral bioavailability in rat plasma at 50 mg/kg dosed via gavage; type: ADME, organism-based
[11] = Solubility of compound in methanol after 2 hrs; type: physicochemical
[12] = Solubility of compound in phosphate buffer at pH 8 after 1 hr by LC/MS analysis; type: physicochemical; conditions: pH 8, 1 h

Row | Drug metabolism [1] | solubility [2] | solubility [3] | dose excreted [4] | Tmax [5] | AUC(0-inf) [6] | Cmax [7] | T [8] | solubility [9] | bioavailability [10] | solubility [11] | solubility [12] | SMILES
1 | metabolite_detected | soluble | 39320 µg/mL | 1.8% | 15 min | 9.34 µM·h | 2360 nM | 214 °C | soluble | 5.6% | – | – | C[N+](C)(C)CCO.O=C([O-])c1cc(/N=N/c2ccc(S(=O)(=O)Nc3ccccn3)cc2)ccc1O
2 | metabolite_detected | soluble | 10 µg/mL (≈ 0.0251 mM) | – | – | – | – | 253 °C | soluble | – | soluble | 3090 µg/mL (≈ 7.76 mM) | O=C(O)c1cc(/N=N/c2ccc(S(=O)(=O)Nc3ccccn3)cc2)ccc1O [SULFASALAZINE]
